Laboratory results published in US8431556B2, “C-21-keto lupane derivatives preparation and use thereof” (Vertex Pharmaceuticals Incorporated, priority 2008, dated 2013).

What follows are compounds tested on HIV-1 (HIVIIIB) (assay: HIV-1 replication in MT2 cell line with and without 30% human serum (viral RT activity in supernatant)). Details: Human immunodeficiency virus 1, MT2, MT-2 cells, with 30% human serum, average IC50 if tested more than once, read-out: MT-2 (HIVIIIB) with 30% HS IC50 range.
Type: cell-based
How it was run: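 MT2 cells infected with HIVIIIB at MOI 0.5 for 3 h, washed, then cultured with serially diluted compound in RPMI/10% FBS, with or without 30% human serum, at 37° C. Compound-containing medium refreshed at day 3. Replication measured as supernatant RT activity at day 5; IC50 and IC90 from curve fits.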
With `CC(C)C1=C2[C@H]3CC[C@@H]4[C@@]5(C)CC[C@H](OC(=O)CC(C)(C)C(=O)O)C(C)(C)[C@@H]5CC[C@@]4(C)[C@]3(C)CC[C@@]2(C(=O)NCC(F)(F)F)CC1=O` [9-71, 3β-O-(3′,3′-Dimethylsuccinyl)-21-oxolup-18-en-28-oic acid N-(2,2,2-trifluoro-ethyl)-acetamide] the IC50 was < 0.199 µM.
For `CC(C)C1=C2[C@H]3CC[C@@H]4[C@@]5(C)CC[C@H](OC(=O)CC(C)(C)C(=O)O)C(C)(C)[C@@H]5CC[C@@]4(C)[C@]3(C)CC[C@@]2(C(=O)Nc2nccc(C(F)(F)F)n2)CC1=O` [9-72, 3β-O-(3′,3′-Dimethylsuccinyl)-21-oxolup-18-en-28-oic acid N-4-trifluoro-pyrimidin-2-yl-acetamide], the IC50 was < 0.199 µM.
With `CC(C)C1=C2[C@H]3CC[C@@H]4[C@@]5(C)CC[C@H](OC(=O)CC(C)(C)C(=O)O)C(C)(C)[C@@H]5CC[C@@]4(C)[C@]3(C)CC[C@@]2(C(=O)NC(C)(C)C2CC2)CC1=O` [9-73, 3β-O-(3′,3′-Dimethylsuccinyl)-21-oxolup-18-en-28-oic acid N-(1-cyclopropyl-1-methyl-ethyl)-acetamide] the IC50 was < 0.199 µM.
`CC(C)C1=C2[C@H]3CC[C@@H]4[C@@]5(C)CC[C@H](OC(=O)CC(C)(C)C(=O)O)C(C)(C)[C@@H]5CC[C@@]4(C)[C@]3(C)CC[C@@]2(C(=O)N2CCC(N(C)C)CC2)CC1=O` [9-74, 3β-O-(3′,3′-Dimethylsuccinyl)-21-oxolup-18-en-28-oic acid N-(4-dimethylamino-piperidin-1-yl)-acetamide] was tested, and the IC50 was < 0.199 µM.
For `CC(C)C1=C2[C@H]3CC[C@@H]4[C@@]5(C)CC[C@H](OC(=O)CC(C)(C)C(=O)O)C(C)(C)[C@@H]5CC[C@@]4(C)[C@]3(C)CC[C@@]2(C(=O)NC(C)C(F)(F)F)CC1=O` (stereo partly drawn) [9-75, 3β-O-(3′,3′-Dimethylsuccinyl)-21-oxolup-18-en-28-oic acid N-(2,2,2-trifluoro-1-methyl-ethyl)-acetamide], the IC50 was < 0.199 µM.
In the case of `Cc1nnc(NC(=O)[C@@]23CC[C@]4(C)[C@H](CC[C@@H]5[C@@]6(C)CC[C@H](OC(=O)CC(C)(C)C(=O)O)C(C)(C)[C@@H]6CC[C@]54C)C2=C(C(C)C)C(=O)C3)s1` [9-76, 3β-O-(3′,3′-Dimethylsuccinyl)-21-oxolup-18-en-28-oic acid N-(5-methyl-[1,3,4]thiadiazol-2-yl)-acetamide], the IC50 is reported as < 0.199 µM.
`CC(C)C1=C2C3CCC4[C@@]5(C)CC[C@H](OC(=O)CC(C)(C)C(=O)O)C(C)(C)C5CC[C@@]4(C)[C@]3(C)CC[C@@]2(C(=O)NC(C)(C)C(F)(F)F)CC1=O` (stereo partly drawn) [9-77, 3β-O-(3′,3′-Dimethylsuccinyl)-21-oxolup-18-en-28-oic acid N-(2,2,2-trifluoro-1,1-dimethyl-ethyl)-acetamide] was tested, and the IC50 was < 0.199 µM.
In the case of `CC(C)C1=C2C3CCC4[C@@]5(C)CC[C@H](OC(=O)CC(C)(C)C(=O)O)C(C)(C)C5CC[C@@]4(C)[C@]3(C)CC[C@@]2(C(=O)N(C)C(C)(C)C)CC1=O` (stereo partly drawn) [9-78, 3β-O-(3′,3′-Dimethylsuccinyl)-21-oxolup-18-en-28-oic acid N-tert-butyl-N-methyl-acetamide], the IC50 is reported as < 0.199 µM.
With `CC(C)C1=C2C3CCC4[C@@]5(C)CC[C@H](OC(=O)CC(C)(C)C(=O)O)C(C)(C)C5CC[C@@]4(C)[C@]3(C)CC[C@@]2(C(=O)NC[C@H]2CCCN2C(=O)OC(C)(C)C)CC1=O` (stereo partly drawn) [9-79, 3β-O-(3′,3′-Dimethylsuccinyl)-21-oxolup-18-en-28-oic acid N-(R)-2-acetylaminomethyl-pyrrolidine-1-carboxylic acid tert-butyl ester] the IC50 was < 0.199 µM.
In the case of `CC(C)C1=C2C3CCC4[C@@]5(C)CC[C@H](OC(=O)CC(C)(C)C(=O)O)C(C)(C)C5CC[C@@]4(C)[C@]3(C)CC[C@@]2(C(=O)NC[C@@H]2CCCN2C(=O)OC(C)(C)C)CC1=O` (stereo partly drawn) [9-80, 3β-O-(3′,3′-Dimethylsuccinyl)-21-oxolup-18-en-28-oic acid N-(S)-2-acetylaminomethyl-pyrrolidine-1-carboxylic acid tert-butyl ester], the IC50 is reported as < 0.199 µM.
For `CC(C)C1=C2C3CCC4[C@@]5(C)CC[C@H](OC(=O)CC(C)(C)C(=O)O)C(C)(C)C5CC[C@@]4(C)[C@]3(C)CC[C@@]2(C(=O)NC[C@H]2CCCN2)CC1=O` (stereo partly drawn) [9-81, 3β-O-(3′,3′-Dimethylsuccinyl)-21-oxolup-18-en-28-oic acid N-((R)-1-pyrrolidin-2-ylmethyl)-acetamide], the IC50 was < 0.199 µM.
`CC(C)C1=C2C3CCC4[C@@]5(C)CC[C@H](OC(=O)CC(C)(C)C(=O)O)C(C)(C)C5CC[C@@]4(C)[C@]3(C)CC[C@@]2(C(=O)NC[C@@H]2CCCN2)CC1=O` (stereo partly drawn) [9-82, 3β-O-(3′,3′-Dimethylsuccinyl)-21-oxolup-18-en-28-oic acid N-((S)-1-pyrrolidin-2-ylmethyl)-acetamide] was tested, and the IC50 was < 0.199 µM.
`CC(C)C1=C2C3CCC4[C@@]5(C)CC[C@H](OC(=O)CC(C)(C)C(=O)O)C(C)(C)C5CC[C@@]4(C)[C@]3(C)CC[C@@]2(C(=O)NC[C@H]2CCCN2C)CC1=O` (stereo partly drawn) [9-83, 3β-O-(3′,3′-Dimethylsuccinyl)-21-oxolup-18-en-28-oic acid N-((R)-1-methyl-pyrrolidin-2-ylmethyl)-acetamide] was tested, and the IC50 was < 0.199 µM.
For `CC(C)C1=C2C3CCC4[C@@]5(C)CC[C@H](OC(=O)CC(C)(C)C(=O)O)C(C)(C)C5CC[C@@]4(C)[C@]3(C)CC[C@@]2(C(=O)NC[C@@H]2CCCN2C)CC1=O` (stereo partly drawn) [9-84, 3β-O-(3′,3′-Dimethylsuccinyl)-21-oxolup-18-en-28-oic acid N-((S)-1-methyl-pyrrolidin-2-ylmethyl)-acetamide], the IC50 was < 0.199 µM.
In the case of `CC(C)C1=C2[C@H]3CC[C@@H]4[C@@]5(C)CC[C@H](OC(=O)CC(C)(C)C(=O)O)C(C)(C)[C@@H]5CC[C@@]4(C)[C@]3(C)CC[C@@]2(C(=O)NC2CCC(F)(F)CC2)CC1=O` [9-85, 3β-O-(3′,3′-Dimethylsuccinyl)-21-oxolup-18-en-28-oic acid N-(4,4-difluoro-cyclohexyl) acetamide], the IC50 is reported as < 0.199 µM.
With `CC(C)C1=C2C3CCC4[C@@]5(C)CC[C@H](OC(=O)CC(C)(C)C(=O)O)C(C)(C)C5CC[C@@]4(C)[C@]3(C)CC[C@@]2(C(=O)Nc2ccccc2Cl)CC1=O` (stereo partly drawn) [9-86, 3β-O-(3′,3′-Dimethylsuccinyl)-21-oxolup-18-en-28-oic acid N-2-chloro-phen-1-yl acetamide] the IC50 was < 0.199 µM.
In the case of `CC(C)C1=C2C3CCC4[C@@]5(C)CC[C@H](OC(=O)CC(C)(C)C(=O)O)C(C)(C)C5CC[C@@]4(C)[C@]3(C)CC[C@@]2(C(=O)Nc2ccccc2C(C)C)CC1=O` (stereo partly drawn) [9-87, 3β-O-(3′,3′-Dimethylsuccinyl)-21-oxolup-18-en-28-oic acid N-2-isopropyl-phen-1-yl acetamide], the IC50 is reported as 0.2 to 0.999 µM.
In the case of `CC(C)C1=C2C3CCC4[C@@]5(C)CC[C@H](OC(=O)CC(C)(C)C(=O)O)C(C)(C)C5CC[C@@]4(C)[C@]3(C)CC[C@@]2(C(=O)Nc2ccc(F)cc2)CC1=O` (stereo partly drawn) [9-88, 3β-O-(3′,3′-Dimethylsuccinyl)-21-oxolup-18-en-28-oic acid N-4-fluoro-phen-1-yl acetamide], the IC50 is reported as < 0.199 µM.
For `CC(C)C1=C2C3CCC4[C@@]5(C)CC[C@H](OC(=O)CC(C)(C)C(=O)O)C(C)(C)C5CC[C@@]4(C)[C@]3(C)CC[C@@]2(C(=O)Nc2ncc3ccccc3n2)CC1=O` (stereo partly drawn) [9-89, 3β-O-(3′,3′-Dimethylsuccinyl)-21-oxolup-18-en-28-oic acid N-quinazolin-2-yl acetamide], the IC50 was < 0.199 µM.
For `CC(C)C1=C2C3CCC4[C@@]5(C)CC[C@H](OC(=O)CC(C)(C)C(=O)O)C(C)(C)C5CC[C@@]4(C)[C@]3(C)CC[C@@]2(C(=O)Nc2nnn(C)n2)CC1=O` (stereo partly drawn) [9-90, 3β-O-(3′,3′-Dimethylsuccinyl)-21-oxolup-18-en-28-oic acid N-(1-methyl-1H-tetrazol-3-yl)-acetamide], the IC50 was < 0.199 µM.
For `Cc1cc(NC(=O)[C@@]23CC[C@]4(C)C(CCC5[C@@]6(C)CC[C@H](OC(=O)CC(C)(C)C(=O)O)C(C)(C)C6CC[C@]54C)C2=C(C(C)C)C(=O)C3)no1` (stereo partly drawn) [9-91, 3β-O-(3′,3′-Dimethylsuccinyl)-21-oxolup-18-en-28-oic acid N-(5-methyl-isoxazol-3-yl)-acetamide], the IC50 was < 0.199 µM.
With `CC(C)C1=C2C3CCC4[C@@]5(C)CC[C@H](OC(=O)CC(C)(C)C(=O)O)C(C)(C)C5CC[C@@]4(C)[C@]3(C)CC[C@@]2(C(=O)N2Cc3ccccc3C2)CC1=O` (stereo partly drawn) [9-92, 3β-O-(3′,3′-Dimethylsuccinyl)-21-oxolup-18-en-28-oic acid N-(1,3-dihydro-isoindol-2-yl)-acetamide] the IC50 was < 0.199 µM.
`CC(C)C1=C2C3CCC4[C@@]5(C)CC[C@H](OC(=O)CC(C)(C)C(=O)O)C(C)(C)C5CC[C@@]4(C)[C@]3(C)CC[C@@]2(C(=O)NCC2CCC(F)(F)CC2)CC1=O` (stereo partly drawn) [9-93, 3β-O-(3′,3′-Dimethylsuccinyl)-21-oxolup-18-en-28-oic acid N-(4,4-difluoro-cyclohexylmethyl)-acetamide] was tested, and the IC50 was < 0.199 µM.
With `CC(C)C1=C2[C@H]3CC[C@@H]4[C@@]5(C)CC[C@H](OC(=O)CC(C)(C)C(=O)O)C(C)(C)[C@@H]5CC[C@@]4(C)[C@]3(C)CC[C@@]2(C(=O)N2CCC(F)(F)CC2)CC1=O` [9-94, 3β-O-(3′,3′-Dimethylsuccinyl)-21-oxolup-18-en-28-oic acid N-4,4-difluoro-piperidine acetamide] the IC50 was < 0.199 µM.
For `CC(=O)N1CC2CCC(C1)N2C(=O)[C@@]12CC[C@]3(C)C(CCC4[C@@]5(C)CC[C@H](OC(=O)CC(C)(C)C(=O)O)C(C)(C)C5CC[C@]43C)C1=C(C(C)C)C(=O)C2` (stereo partly drawn) [9-95, 3β-O-(3′,3′-Dimethylsuccinyl)-21-oxolup-18-en-28-oic acid N-8-acetylamino-3,8-diaza-bicyclo[3.2.1]octane-3-acetamide], the IC50 was < 0.199 µM.
